Several values for one entry are separate records, joined by “and”; a condition that tells them apart may be missing. Equal entries are not always repeated. Toxic doses and inconclusive results are not listed. The calls were made as follows: active = survival T/C of 150% or more; inactive = T/C below 125% in these data.
Test system: P388 leukemia ip, CD2F1 mice, survival T/C
Test: NCI In Vivo Anticancer Drug Screen. Data for tumor model P388 Leukemia (intraperitoneal) in CD2F1 (CDF1) mice
Conditions: endpoint: median survival time, higher = longer survival
Procedure, shortened: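 Mice carrying the transplanted tumor received test compound or vehicle. Survival was recorded in each group, and the value is the treated-group measurement divided by that of the vehicle-treated control group.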

[1] = dose: 100.0 mg/kg/injection, schedule: Q01DX009 (ip), vehicle: saline with Tween-80
[2] = dose: 200.0 mg/kg/injection, schedule: Q01DX009 (ip), vehicle: saline with Tween-80
[3] = dose: 50.0 mg/kg/injection, schedule: Q01DX005 (ip), vehicle: Klucel (hydroxypropylcellulose) (HPC)
[4] = dose: 100.0 mg/kg/injection, schedule: Q01DX005 (ip), vehicle: Klucel (hydroxypropylcellulose) (HPC)
[5] = dose: 200.0 mg/kg/injection, schedule: Q01DX005 (ip), vehicle: Klucel (hydroxypropylcellulose) (HPC)
[6] = dose: 6.25 mg/kg/injection, schedule: Q01DX005 (ip), vehicle: saline
[7] = dose: 12.5 mg/kg/injection, schedule: Q01DX005 (ip), vehicle: saline
[8] = dose: 60.0 mg/kg/injection, schedule: Q01DX005 (ip), vehicle: saline with Tween-80
[9] = dose: 120.0 mg/kg/injection, schedule: Q01DX005 (ip), vehicle: saline with Tween-80
[10] = dose: 240.0 mg/kg/injection, schedule: Q01DX005 (ip), vehicle: saline with Tween-80
[11] = dose: 25.0 mg/kg/injection, schedule: Q04DX003 (ip), vehicle: saline with Tween-80
[12] = dose: 50.0 mg/kg/injection, schedule: Q04DX003 (ip), vehicle: saline with Tween-80

Measured: T/C

O=C(c1cc2c(cc1Br)OCO2)N1CCCc2ccccc21
inactive: dose: 25.0 mg/kg/injection, schedule: Q01DX009 (ip), vehicle: other 100 % of control | dose: 50.0 mg/kg/injection, schedule: Q01DX009 (ip), vehicle: other 97 % of control | dose: 100.0 mg/kg/injection, schedule: Q01DX009 (ip), vehicle: other 102 % of control | dose: 200.0 mg/kg/injection, schedule: Q01DX009 (ip), vehicle: other 97 % of control | dose: 400.0 mg/kg/injection, schedule: Q01DX009 (ip), vehicle: other 93 % of control

OC(c1ccc(F)cc1)(C1CC1)C1CC1
inactive: dose: 100.0 mg/kg/injection, schedule: Q01DX001 (ip), vehicle: saline + alcohol 98 % of control | dose: 200.0 mg/kg/injection, schedule: Q01DX001 (ip), vehicle: saline + alcohol 99 % of control | dose: 400.0 mg/kg/injection, schedule: Q01DX001 (ip), vehicle: saline + alcohol 101 % of control

N=Cc1c(O)n(C2CCCCC2)c(=O)n(C2CCCCC2)c1=O
inactive: [1] 100 % of control | [2] 95 % of control | dose: 400.0 mg/kg/injection, schedule: Q01DX009 (ip), vehicle: saline with Tween-80 100 % of control

CC(C)(C)N1COC(c2ccccc2)C1 (configuration not stated)
inactive: dose: 50.0 mg/kg/injection, schedule: Q01DX005 (ip), vehicle: saline 106 % of control | dose: 100.0 mg/kg/injection, schedule: Q01DX005 (ip), vehicle: saline 111 % of control

CC1(C)COC(=O)C(C(=O)O)=C1C(=O)O
inactive: dose: 50.0 mg/kg/injection, schedule: Q01DX009 (ip), vehicle: saline with Tween-80 90 % of control | [1] 87 % of control | [2] 90 % of control

S=C(Nc1ccc(Br)cc1)SCc1ccc(Cl)c(Cl)c1
inactive: dose: 50.0 mg/kg/injection, schedule: Q01DX009 (ip), vehicle: suspension in saline 105 % of control | dose: 100.0 mg/kg/injection, schedule: Q01DX009 (ip), vehicle: suspension in saline 111 % of control | dose: 200.0 mg/kg/injection, schedule: Q01DX009 (ip), vehicle: suspension in saline 110 % of control

CC(=O)N(C)c1ccc2c(c1)C(=O)c1ccccc1-2
inactive: dose: 50.0 mg/kg/injection, schedule: Q01DX005 (ip), vehicle: saline with Tween-80 102 % of control | dose: 100.0 mg/kg/injection, schedule: Q01DX005 (ip), vehicle: saline with Tween-80 95 % of control | dose: 200.0 mg/kg/injection, schedule: Q01DX005 (ip), vehicle: saline with Tween-80 92 % of control

CC(=O)N1C(=O)c2ccccc2NC1(C)c1ccncc1 (configuration not stated)
inactive: dose: 25.0 mg/kg/injection, schedule: Q01DX005 (ip), vehicle: Klucel (hydroxypropylcellulose) (HPC) 100 % of control | [3] 101 % of control | [4] 107 % of control | [5] 106 % of control

Clc1ccc2c(NCC3CCCN4CCCCC34)ccnc2c1 (configuration not stated)
inactive: [3] 104 % of control | [4] 101 % of control

O=c1[nH]c(=O)c2nc(-c3ccc(Cl)c(Cl)c3)cnc2[nH]1
inactive: dose: 100.0 mg/kg/injection, schedule: Q01DX001 (ip), vehicle: saline 100 % of control | dose: 200.0 mg/kg/injection, schedule: Q01DX001 (ip), vehicle: saline 116 % of control | dose: 400.0 mg/kg/injection, schedule: Q01DX001 (ip), vehicle: saline 91 % of control

C/C=C1\CN2C3CC45c6cc(OC)c(OC)cc6N(C)C4(O3)C2CC1C5(COC(=O)c1cc(OC)c(OC)c(OC)c1)C(=O)OC (configuration not stated)
inactive: dose: 11.5 mg/kg/injection, schedule: Q01DX005 (ip), vehicle: acid diluted with saline 98 % of control | dose: 23.0 mg/kg/injection, schedule: Q01DX005 (ip), vehicle: acid diluted with saline 100 % of control | dose: 46.0 mg/kg/injection, schedule: Q01DX005 (ip), vehicle: acid diluted with saline 110 % of control | dose: 92.0 mg/kg/injection, schedule: Q01DX005 (ip), vehicle: acid diluted with saline 100 % of control

O=C(OCCOCCO)c1ccccc1-c1c2cc(I)c(=O)c(I)c-2oc2c(I)c(O)c(I)cc12
inactive: dose: 60.0 mg/kg/injection, schedule: Q01DX005 (ip), vehicle: saline 94 % of control | dose: 120.0 mg/kg/injection, schedule: Q01DX005 (ip), vehicle: saline 91 % of control | dose: 240.0 mg/kg/injection, schedule: Q01DX005 (ip), vehicle: saline 92 % of control

CC[N+](C)(C)c1ccc(C(=C2C=CC(=[N+](C)C)C=C2)c2ccc(N(C)C)cc2)cc1
inactive: dose: 3.12 mg/kg/injection, schedule: Q01DX005 (ip), vehicle: saline 100 % of control | [6] 100 % of control | [7] 104 % of control

C[S+](C)CCCNC(=O)c1csc(-c2csc(-c3cscn3)n2)n1
inactive: [6] 104 % of control | [7] 96 % of control

CC(C)(C)c1ccc(C(O)(C(F)(F)F)C(F)(F)F)cc1
inactive: dose: 100.0 mg/kg/injection, schedule: Q04DX002 (ip), vehicle: Klucel (hydroxypropylcellulose) (HPC) 94 % of control | dose: 200.0 mg/kg/injection, schedule: Q04DX002 (ip), vehicle: Klucel (hydroxypropylcellulose) (HPC) 94 % of control | dose: 400.0 mg/kg/injection, schedule: Q04DX002 (ip), vehicle: Klucel (hydroxypropylcellulose) (HPC) 109 % of control

CCOC(=O)C(C)(C)Oc1ccc(N=[N+]=[N-])cc1
inactive: [8] 100 % of control | [9] 104 % of control | [10] 109 % of control

N#Cc1c(Cl)cccc1N1CCSCC1
inactive: dose: 60.0 mg/kg/injection, schedule: Q01DX005 (ip), vehicle: Klucel (hydroxypropylcellulose) (HPC) 94 % of control | dose: 120.0 mg/kg/injection, schedule: Q01DX005 (ip), vehicle: Klucel (hydroxypropylcellulose) (HPC) 102 % of control | dose: 240.0 mg/kg/injection, schedule: Q01DX005 (ip), vehicle: Klucel (hydroxypropylcellulose) (HPC) 100 % of control

CC1=NNC(=O)CC1C(O)c1ccc(F)cc1 (configuration not stated)
inactive: [8] 100 % of control | [9] 104 % of control | [10] 100 % of control

CC12CC(c3ccoc3)OC(=O)C1CCC13COC(=O)C1=CCCC32 (configuration not stated)
inactive: dose: 0.25 mg/kg/injection, schedule: Q01DX009 (ip), vehicle: Klucel (hydroxypropylcellulose) (HPC) 96 % of control | dose: 0.5 mg/kg/injection, schedule: Q01DX009 (ip), vehicle: Klucel (hydroxypropylcellulose) (HPC) 88 % of control | dose: 1.0 mg/kg/injection, schedule: Q01DX009 (ip), vehicle: Klucel (hydroxypropylcellulose) (HPC) 90 % of control | dose: 2.0 mg/kg/injection, schedule: Q01DX009 (ip), vehicle: Klucel (hydroxypropylcellulose) (HPC) 114 % of control

COC(=O)c1n[nH]n(Cc2ccccc2)c1=O (tested in a mixture with another compound)
inactive: [3] 103 % of control | [4] 92 % of control | [5] 92 % of control

CCn1c2nc(=O)n(C)c(=O)c-2[n+]([O-])c2cc(C)ccc21
inactive: dose: 6.25 mg/kg/injection, schedule: Q04DX003 (ip), vehicle: saline with Tween-80 88 % of control | dose: 12.5 mg/kg/injection, schedule: Q04DX003 (ip), vehicle: saline with Tween-80 86 % of control | [11] 88 % of control | [12] 86 % of control

CN1NC1(C)C (configuration not stated)
inactive: dose: 50.0 mg/kg/injection, schedule: Q04DX002 (ip), vehicle: saline 100 % of control | dose: 100.0 mg/kg/injection, schedule: Q04DX002 (ip), vehicle: saline 110 % of control | dose: 200.0 mg/kg/injection, schedule: Q04DX002 (ip), vehicle: saline 98 % of control

Cc1nc2c([N+](=O)[O-])c(Nc3ccccc3)c([N+](=O)[O-])cc2[nH]1
inactive: [11] 92 % of control | [12] 101 % of control | dose: 100.0 mg/kg/injection, schedule: Q04DX003 (ip), vehicle: saline with Tween-80 104 % of control and 90 % of control

— PubChem BioAssay AID330 (DTP/NCI, 2004)
